Bridge positions count the residues as written; N and C are the ends. Square brackets hold non-standard residues; d marks the D form. Peptide text beside a SMILES is read from it. Hyp = O=C(O)[C@@H]1C[C@@H](O)CN1
Key:
hAMY3 receptor = target: T1, hAMY3 receptor (Homo sapiens, UniProt O60896+P30988); assay: cAMP assay for in vitro receptor activation, hAMY3-R; type: cell-based; details: cAMP assay, hAMY3 receptor; read-out: hAMY3R EC50
T1 sequence (P30988 25-474): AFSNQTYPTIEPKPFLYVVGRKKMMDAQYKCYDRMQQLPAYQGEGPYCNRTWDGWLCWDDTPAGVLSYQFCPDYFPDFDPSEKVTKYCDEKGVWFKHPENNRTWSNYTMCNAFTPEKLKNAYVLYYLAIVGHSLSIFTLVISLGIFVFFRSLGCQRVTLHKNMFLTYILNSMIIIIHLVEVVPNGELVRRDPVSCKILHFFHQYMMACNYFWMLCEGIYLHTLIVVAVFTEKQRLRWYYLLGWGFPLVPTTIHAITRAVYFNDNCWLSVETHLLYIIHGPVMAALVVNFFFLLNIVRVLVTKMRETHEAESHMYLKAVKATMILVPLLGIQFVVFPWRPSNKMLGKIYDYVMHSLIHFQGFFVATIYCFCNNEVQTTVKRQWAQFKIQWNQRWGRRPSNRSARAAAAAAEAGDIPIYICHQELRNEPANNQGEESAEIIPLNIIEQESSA
T1 sequence (O60896 24-148 partner): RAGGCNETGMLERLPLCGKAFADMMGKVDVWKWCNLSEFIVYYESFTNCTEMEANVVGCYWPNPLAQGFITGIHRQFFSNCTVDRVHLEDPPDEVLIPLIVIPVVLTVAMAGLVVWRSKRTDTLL
Outline: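 Thawed cells from a sub-cloned monoclonal hAMY3-overexpressing line are plated in DPBS containing 0.05% casein and 0.5 mM IBMX. Test compounds are added immediately at graded doses for 30 min at room temperature. Reagents for cAMP detection are then added, and TR-FRET is recorded after one hour.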

hAM1 receptor = hAM1 receptor (Homo sapiens, UniProt O60895+Q16602); assay: cAMP assay for in vitro receptor activation, hAM1-R; type: cell-based; details: cAMP assay, hAM1 receptor; read-out: hAM1R EC50
Outline: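 Receptor activation, read as cAMP, was assessed in thawed cells of a monoclonal hAM1-overexpressing stable line, plated at 8000 cells/well in DPBS supplemented with 0.05% casein and 0.5 mM IBMX.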

[1] = Physical stability of peptide analogues (Thioflavin T fibrillation); type: physicochemical; details: maximum ThT signal normalized between hAMY maximum and buffer background; 40° C., shaking, four days; pH 7 per table title
Outline: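 ThT fluorescence (450 nm excitation, 480 nm emission; 4 μM dye) was read every 10 min over four days at 40° C under 700 rpm shaking stress, after 1 h in pH 4 acetate or pH 7 phosphate (50 mM). Peak smoothed signal expressed as percent, scaled between buffer background and hAMY maximum.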

Sequence of hAM1 receptor (Q16602 23-461): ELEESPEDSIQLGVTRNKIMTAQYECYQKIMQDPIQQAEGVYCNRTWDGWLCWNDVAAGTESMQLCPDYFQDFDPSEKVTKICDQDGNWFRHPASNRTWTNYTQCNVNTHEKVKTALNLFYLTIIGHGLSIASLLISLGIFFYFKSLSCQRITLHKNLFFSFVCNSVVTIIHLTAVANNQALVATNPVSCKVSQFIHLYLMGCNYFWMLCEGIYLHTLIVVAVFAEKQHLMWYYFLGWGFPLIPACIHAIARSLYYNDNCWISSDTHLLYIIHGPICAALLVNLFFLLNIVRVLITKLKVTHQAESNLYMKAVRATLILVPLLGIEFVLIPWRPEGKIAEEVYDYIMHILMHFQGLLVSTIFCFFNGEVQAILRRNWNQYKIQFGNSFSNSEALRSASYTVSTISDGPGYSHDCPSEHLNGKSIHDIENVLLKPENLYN
Sequence of hAM1 receptor (O60895 43-175 partner): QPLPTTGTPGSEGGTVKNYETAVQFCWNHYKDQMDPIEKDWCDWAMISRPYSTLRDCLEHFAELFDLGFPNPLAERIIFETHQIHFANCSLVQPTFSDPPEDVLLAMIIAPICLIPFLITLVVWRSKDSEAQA

Compound	EC50 (hAMY3 receptor) [nM]	EC50 (hAM1 receptor) [nM]	Max ThT signal (%) [1] [%]
CC[C@H](C)[C@H](NC(=O)[C@H](CCC(N)=O)NC(=O)[C@H](Cc1c[nH]cn1)NC(=O)[C@H](C)NC(=O)[C@H](CC(C)C)NC(=O)[C@H](Cc1c[nH]c2ccccc12)NC(=O)[C@H](CCC(N)=O)NC(=O)[C@@H](NC(=O)[C@@H](NC(=O)[C@@H]1CSSC[C@H](NC(=O)CN)C(=O)N[C@@H](CCCNC(=N)N)C(=O)N[C@@H]([C@@H](C)O)C(=O)NCC(=O)N[C@@H]([C@@H](C)O)C(=O)N1)[C@@H](C)O)C(C)C)C(=O)N[C@@H](Cc1ccc(O)cc1)C(=O)N[C@@H](CCC(N)=O)C(=O)N[C@@H](Cc1ccccc1)C(=O)N[C@H](C(=O)N[C@@H](CC(=O)O)C(=O)N[C@@H](CCCCN)C(=O)N[C@@H](CC(=O)O)C(=O)N[C@@H](CCCCN)C(=O)N[C@@H](CC(=O)O)C(=O)N[C@@H](CC(N)=O)C(=O)N[C@H](C(=O)N[C@@H](C)C(=O)N1CCC[C@H]1C(=O)N[C@@H](CCCNC(=N)N)C(=O)N[C@H](C(=O)N[C@@H](CC(N)=O)C(=O)N[C@H](C(=O)NCC(=O)N1CCC[C@H]1C(=O)N[C@@H](CC(N)=O)C(=O)NCC(=O)N[C@@H](Cc1ccc(O)cc1)C(N)=O)C(C)C)[C@@H](C)O)C(C)C)[C@@H](C)O [compound 332] (H-GCRTGTCTVQWLAHQIYQFTDKDKDNVAPRTNVGPNGY-NH2; disulfide 2-7; N-terminus assumed)	0.007	> 5000	2.100
CC[C@H](C)[C@H](NC(=O)[C@H](CCC(N)=O)NC(=O)[C@H](CCC(=O)O)NC(=O)[C@H](C)NC(=O)[C@H](CC(C)C)NC(=O)[C@H](Cc1c[nH]c2ccccc12)NC(=O)[C@H](CCC(N)=O)NC(=O)[C@@H](NC(=O)[C@@H](NC(=O)[C@@H]1CSSC[C@H](NC(=O)[C@@H](N)CCCCN)C(=O)N[C@@H](CC(N)=O)C(=O)N[C@@H](C)C(=O)N[C@@H](C)C(=O)N[C@@H]([C@@H](C)O)C(=O)N1)[C@@H](C)O)C(C)C)C(=O)N[C@@H](Cc1ccc(O)cc1)C(=O)N[C@@H](CCC(N)=O)C(=O)N[C@@H](Cc1ccccc1)C(=O)N[C@H](C(=O)N[C@@H](CC(=O)O)C(=O)N[C@@H](CCCCN)C(=O)N[C@@H](CC(=O)O)C(=O)N[C@@H](CCCCN)C(=O)N[C@@H](CC(=O)O)C(=O)N[C@@H](CC(N)=O)C(=O)N[C@H](C(=O)N[C@@H](C)C(=O)N1CCC[C@H]1C(=O)N1CCC[C@H]1C(=O)N[C@H](C(=O)N[C@@H](CC(N)=O)C(=O)N[C@H](C(=O)NCC(=O)N[C@@H](CO)C(=O)N[C@@H](CC(N)=O)C(=O)NCC(=O)N1C[C@H](O)C[C@H]1C(N)=O)C(C)C)[C@@H](C)O)C(C)C)[C@@H](C)O [compound 333] (H-KCNAATCTVQWLAEQIYQFTDKDKDNVAPPTNVGSNG[Hyp]-NH2; disulfide 2-7; N-terminus assumed)	0.236	107	25.700
CC[C@H](C)[C@H](NC(=O)[C@H](CCC(N)=O)NC(=O)[C@H](Cc1c[nH]cn1)NC(=O)[C@H](C)NC(=O)[C@H](CC(C)C)NC(=O)[C@H](Cc1c[nH]c2ccccc12)NC(=O)[C@H](CCC(N)=O)NC(=O)[C@@H](NC(=O)[C@@H](NC(=O)[C@@H]1CSSC[C@H](NC(=O)[C@@H](N)CCCCN)C(=O)N[C@@H](CC(N)=O)C(=O)N[C@@H]([C@@H](C)O)C(=O)N[C@@H](C)C(=O)N[C@@H]([C@@H](C)O)C(=O)N1)[C@@H](C)O)C(C)C)C(=O)N[C@@H](Cc1ccc(O)cc1)C(=O)N[C@@H](CCC(N)=O)C(=O)N[C@@H](Cc1ccccc1)C(=O)N[C@H](C(=O)N[C@@H](CC(=O)O)C(=O)N[C@@H](CCCCN)C(=O)N[C@@H](CC(=O)O)C(=O)N[C@@H](CCCCN)C(=O)N[C@@H](CC(=O)O)C(=O)N[C@@H](CC(N)=O)C(=O)N[C@H](C(=O)N[C@@H](C)C(=O)N1CCC[C@H]1C(=O)N[C@@H](CCCNC(=N)N)C(=O)N[C@H](C(=O)N[C@@H](CCC(=O)O)C(=O)N[C@H](C(=O)NCC(=O)N[C@@H](CO)C(=O)N[C@@H](CC(N)=O)C(=O)NCC(=O)N[C@@H](Cc1ccc(O)cc1)C(N)=O)C(C)C)[C@@H](C)O)C(C)C)[C@@H](C)O [compound 334] (H-KCNTATCTVQWLAHQIYQFTDKDKDNVAPRTEVGSNGY-NH2; disulfide 2-7)	0.013	> 5000	10.150
CC[C@H](C)[C@H](NC(=O)[C@H](CCC(N)=O)NC(=O)[C@H](Cc1c[nH]cn1)NC(=O)[C@H](C)NC(=O)[C@H](CC(C)C)NC(=O)[C@H](Cc1c[nH]c2ccccc12)NC(=O)[C@H](CCC(N)=O)NC(=O)[C@@H](NC(=O)[C@@H](NC(=O)[C@@H]1CSSC[C@H](NC(=O)CN)C(=O)N[C@@H](CCCNC(=N)N)C(=O)N[C@@H]([C@@H](C)O)C(=O)NCC(=O)N[C@@H]([C@@H](C)O)C(=O)N1)[C@@H](C)O)C(C)C)C(=O)N[C@@H](Cc1ccc(O)cc1)C(=O)N[C@@H](CCC(N)=O)C(=O)N[C@@H](Cc1ccccc1)C(=O)N[C@H](C(=O)N[C@@H](CC(=O)O)C(=O)N[C@@H](CCCCN)C(=O)N[C@@H](CC(=O)O)C(=O)N[C@@H](CCCCN)C(=O)N[C@@H](CC(=O)O)C(=O)N[C@@H](CC(N)=O)C(=O)N[C@H](C(=O)N[C@@H](C)C(=O)N1CCC[C@H]1C(=O)N[C@@H](CCCNC(=N)N)C(=O)N[C@H](C(=O)N[C@@H](CC(N)=O)C(=O)N[C@H](C(=O)NCC(=O)N1CCC[C@H]1C(=O)N[C@@H](CCC(N)=O)C(=O)NCC(=O)N[C@@H](Cc1ccc(O)cc1)C(N)=O)C(C)C)[C@@H](C)O)C(C)C)[C@@H](C)O [compound 335] (H-GCRTGTCTVQWLAHQIYQFTDKDKDNVAPRTNVGPQGY-NH2; disulfide 2-7; N-terminus assumed)	0.015	> 5000	1.600
CC[C@H](C)[C@H](NC(=O)[C@H](CCCCN)NC(=O)[C@@H](NC(=O)[C@H](CCCNC(=N)N)NC(=O)[C@@H]1CCCN1C(=O)[C@H](C)NC(=O)[C@@H](NC(=O)[C@H](CC(N)=O)NC(=O)[C@H](CC(=O)O)NC(=O)[C@H](CCCCN)NC(=O)[C@H](CC(=O)O)NC(=O)[C@H](CCCCN)NC(=O)[C@H](CC(=O)O)NC(=O)[C@@H](NC(=O)[C@H](Cc1ccccc1)NC(=O)[C@H](CCC(N)=O)NC(=O)[C@H](Cc1ccc(O)cc1)NC(=O)[C@@H](NC(=O)[C@H](CCC(N)=O)NC(=O)[C@H](Cc1c[nH]cn1)NC(=O)[C@H](C)NC(=O)[C@H](CC(C)C)NC(=O)[C@H](Cc1c[nH]c2ccccc12)NC(=O)[C@H](CCC(N)=O)NC(=O)[C@@H](NC(=O)[C@@H](NC(=O)[C@@H]1CSSC[C@H](NC(=O)CN)C(=O)N[C@@H](CCCNC(=N)N)C(=O)N[C@@H]([C@@H](C)O)C(=O)NCC(=O)N[C@@H]([C@@H](C)O)C(=O)N1)[C@@H](C)O)C(C)C)[C@@H](C)CC)[C@@H](C)O)C(C)C)[C@@H](C)O)C(=O)NCC(=O)N1CCC[C@H]1C(=O)N[C@@H](CC(N)=O)C(=O)NCC(=O)N1C[C@H](O)C[C@H]1C(N)=O [compound 339] (H-GCRTGTCTVQWLAHQIYQFTDKDKDNVAPRTKIGPNG[Hyp]-NH2; disulfide 2-7; N-terminus assumed)	0.047	> 5000	20.050
CC[C@H](C)[C@H](NC(=O)[C@H](CC(N)=O)NC(=O)[C@@H](NC(=O)[C@H](CCCNC(=N)N)NC(=O)[C@@H]1CCCN1C(=O)[C@H](C)NC(=O)[C@@H](NC(=O)[C@H](CC(N)=O)NC(=O)[C@H](CC(=O)O)NC(=O)[C@H](CCCCN)NC(=O)[C@H](CC(=O)O)NC(=O)[C@H](CCCCN)NC(=O)[C@H](CC(=O)O)NC(=O)[C@@H](NC(=O)[C@H](Cc1ccccc1)NC(=O)[C@H](CCC(N)=O)NC(=O)[C@H](Cc1ccc(O)cc1)NC(=O)[C@@H](NC(=O)[C@H](CCC(N)=O)NC(=O)[C@H](Cc1c[nH]cn1)NC(=O)[C@H](C)NC(=O)[C@H](CC(C)C)NC(=O)[C@H](Cc1c[nH]c2ccccc12)NC(=O)[C@H](CCC(N)=O)NC(=O)[C@@H](NC(=O)[C@@H](NC(=O)[C@@H]1CSSC[C@H](NC(=O)CN)C(=O)N[C@@H](CCCNC(=N)N)C(=O)N[C@@H]([C@@H](C)O)C(=O)NCC(=O)N[C@@H]([C@@H](C)O)C(=O)N1)[C@@H](C)O)C(C)C)[C@@H](C)CC)[C@@H](C)O)C(C)C)[C@@H](C)O)C(=O)NCC(=O)N1CCC[C@H]1C(=O)N[C@@H](CCC(N)=O)C(=O)NCC(=O)N1C[C@H](O)C[C@H]1C(N)=O [compound 341] (H-GCRTGTCTVQWLAHQIYQFTDKDKDNVAPRTNIGPQG[Hyp]-NH2; disulfide 2-7; N-terminus assumed)	0.029	> 5000	20.500

From patent US12139520B2 (priority 2020, dated 2024)
